Test results published in article PMC10454409, “Hybrids of Sterically Hindered Phenols and Diaryl Ureas: Synthesis, Switch from Antioxidant Activity to ROS Generation and Induction of Apoptosis” (International Journal of Molecular Sciences, 2023).
Read-outs that look alike come from different tables or passages of the source.

Experiments:
Assay type in all cases: cell-based
[1] = system: Chang liver cells (human liver cells, normal cell line); assay: MTT cytotoxicity test, Chang liver normal cells; conditions: 48 h incubation
Excerpt: (§1) For the experiments, we used tumor cell cultures M-HeLa clone 11 (epithelioid carcinoma of the cervix, subline HeLa., clone M-HeLa), HuTu 80 (human duodenal adenocarcinoma) and MCF7 (human breast adenocarcinoma (pleural fluid)) from the collection of the Institute of Cytology, Russian Academy of Sciences (St. Petersburg); human liver cells (Chang liver) from the collection of the Research Institute of Virology at the Russian Academy of Medical Sciences (Moscow); and SH-SY5Y (neuroblastoma)from the Laboratory of Tumor Cell Genetics at the Scientific Research Institute of Carcinogenesis N.N. Blokhin National Medical Research Center of Oncology.
(§2) The cytotoxic effect on cells was determined using the colorimetric method of cell proliferation—the MTT test. NADP-H-dependent cellular oxidoreductase enzymes can, under certain conditions, reflect the number of viable cells. These enzymes are able to reduce the tetrazolium dye (MTT)-3-(4,5-dimethylthiazol-2-yl)-2,5-diphenyl-tetrazolium bromide to insoluble blue-violet formazan, which crystallizes inside the cell. The amount of formazan formed is proportional to the number of cells with active metabolism.
(§3) Cells were seeded on a 96-well Nunc plate at a concentration of 5 × 10^3 cells per well in a volume of 100 μL of medium and cultured in a CO2 incubator at 37 °C until a monolayer was formed. […] After 48 h, the nutrient medium was removed from the plates and 100 µL of the nutrient medium without serum with MTT at a concentration of 0.5 mg/mL was added and incubated for 4 h at 37 °C. Formazan crystals were […] 100 µL of DMSO in each well. Optical density was recorded at 540 nm on an in vitro logic microplate reader (Russia). The experiments for all compounds were repeated in triplicate.
(§4) IC50 values were estimated using the Quest Graph IC50 Calculator (AAT Bioquest, Inc., Sunnyvale, CA, USA) (Version 2022) (accessed on 25 June 2022).

[2] = system: HuTu 80 cells (human duodenal adenocarcinoma); assay: MTT cytotoxicity test, HuTu 80; conditions: Homo sapiens
Excerpt: as §1, §2, §3, §4

[3] = system: M-HeLa cells (human cervix epithelioid carcinoma); assay: MTT cytotoxicity test, M-HeLa; conditions: for IC50: Homo sapiens, M-HeLa, MTT test, 24 h incubation per text, 48 h per method
Excerpt: as §1, §2, §3, §4

[4] = system: SH-SY5Y cells (neuroblastoma); assay: MTT cytotoxicity test, SH-SY5Y; conditions: for IC50: Homo sapiens, SH-SY5Y, MTT test, 24 h incubation per text, 48 h per method
Excerpt: as §1, §2, §3, §4

[5] = system: MCF-7 cells (human breast adenocarcinoma); assay: MTT cytotoxicity test, MCF-7; conditions: for IC50: Homo sapiens, MCF7, MTT test, 24 h incubation per text, 48 h per method; for SI, selectivity index relative to Chang liver, MCF-7: MCF-7 vs Chang liver
Protocol: as §2
Formazan crystals were added to 100 µL of DMSO in each well. Optical density was recorded at 540 nm on an in vitro logic microplate reader (Russia). The experiments for all compounds were repeated in triplicate.

[6] = HuTu80, MTT test, 24 h incubation per text, 48 h per method, read-out: IC50, HuTu 80
[7] = HuTu80, read-out: IC50, HuTu 80

Compound	IC50 [1] [µM]	IC50 [2, 6] [µM]	IC50 [3] [µM]	IC50 [4] [µM]	IC50 [2, 7] [µM]	IC50 [5] [µM]	SI, selectivity index relative to Chang liver, M-HeLa ([3]; M-HeLa vs Chang liver)	SI, selectivity index relative to Chang liver, MCF-7 [5]	SI, selectivity index relative to Chang liver, SH-SY5Y ([4]; SH-SY5Y vs Chang liver)
CNC(=O)c1cc(Oc2ccc(NC(=O)Nc3ccc(Cl)c(C(F)(F)F)c3)cc2)ccn1 [SF, sorafenib, reference compound]	21.7 ± 1.7	6.2 ± 0.5	25 ± 1.9	–	–	–	–	–	–
COP(=O)(OC)C(c1cc(C(C)(C)C)c(O)c(C(C)(C)C)c1)c1ccc(N)nc1N (stereo not shown) [3a]	> 100	–	16.1 ± 1.3	> 100	> 100	31 ± 2.6	–	–	–
CC(C)(C)c1cc(C(c2ccc(N)nc2N)P(=O)(Oc2ccccc2)Oc2ccccc2)cc(C(C)(C)C)c1O (stereo not shown) [3d]	52.3 ± 3.5	–	7.4 ± 0.7	18.8 ± 0.2	63.2 ± 5.6	16.4 ± 1.7	~7	~3	–
CCOP(=O)(OCC)C(c1cc(C(C)(C)C)c(O)c(C(C)(C)C)c1)c1ccc(NC(=O)Nc2ccc(OC)cc2)nc1NC(=O)Nc1ccc(OC)cc1 (stereo not shown) [10b]	81.2 ± 6.4	–	> 100	> 100	45 ± 3.6	82.1 ± 6.5	–	–	–
CCOP(=O)(OCC)C(c1cc(C(C)(C)C)c(O)c(C(C)(C)C)c1)c1ccc(NC(=O)Nc2ccc(OC)cc2)cc1NC(=O)Nc1ccc(OC)cc1 (stereo not shown) [15b]	96 ± 7.6	–	> 100	> 100	58.7 ± 4.6	96.3 ± 7.6	–	–	–
Cc1ccc(NC(=O)Nc2ccc(C(c3cc(C(C)(C)C)c(O)c(C(C)(C)C)c3)P(=O)(Oc3ccccc3)Oc3ccccc3)c(NC(=O)Nc3ccc(C)cc3)n2)cc1 (stereo not shown) [9d]	> 100	–	78.9 ± 6.2	> 100	50 ± 4	76.6 ± 6.2	–	–	–
CC(C)OP(=O)(OC(C)C)C(c1cc(C(C)(C)C)c(O)c(C(C)(C)C)c1)c1ccc(N)nc1N (stereo not shown) [3c]	100 ± 2.7	> 100	38 ± 2.8	30.4 ± 0.7	–	21.8 ± 1.7	–	~5	~3
CCOP(=O)(OCC)C(c1cc(C(C)(C)C)c(O)c(C(C)(C)C)c1)c1ccc(N)nc1N (stereo not shown) [3b]	> 100	–	17.1 ± 1.3	77 ± 1.9	86.6 ± 6.8	34.2 ± 3	–	–	–
COP(=O)(OC)C(c1cc(C(C)(C)C)c(O)c(C(C)(C)C)c1)c1ccc(NC(=O)Nc2ccc([N+](=O)[O-])cc2)cc1NC(=O)Nc1ccc([N+](=O)[O-])cc1 (stereo not shown) [17a]	86 ± 6.6	–	60 ± 4.7	> 100	41 ± 3.1	73.6 ± 5.8	–	–	–
CCOP(=O)(OCC)C(c1cc(C(C)(C)C)c(O)c(C(C)(C)C)c1)c1ccc(NC(=O)Nc2cccc(C)c2)nc1NC(=O)Nc1cccc(C)c1 (stereo not shown) [8b]	13 ± 1.2	8 ± 0.6	62 ± 2.2	41 ± 0.3	< 15	35.4 ± 2.8	–	–	–
CCOP(=O)(OCC)C(c1cc(C(C)(C)C)c(O)c(C(C)(C)C)c1)c1ccc(NC(=O)Nc2cccc(C)c2)cc1NC(=O)Nc1cccc(C)c1 (stereo not shown) [13b]	68.2 ± 5.4	–	96.3 ± 7.5	86.3 ± 4	40.1 ± 3.1	57.7 ± 4.6	–	–	–
COP(=O)(OC)C(c1cc(C(C)(C)C)c(O)c(C(C)(C)C)c1)c1ccc(NC(=O)Nc2cccc(C)c2)cc1NC(=O)Nc1cccc(C)c1 (stereo not shown) [13a]	92 ± 7.2	–	75 ± 6	> 100	75.1 ± 6.1	77.4 ± 6.3	–	–	–
CCOP(=O)(OCC)C(c1cc(C(C)(C)C)c(O)c(C(C)(C)C)c1)c1ccc(NC(=O)Nc2ccc(Cl)cc2)cc1NC(=O)Nc1ccc(Cl)cc1 (stereo not shown) [16b]	> 100	–	100 ± 8.6	> 100	61 ± 4.8	> 100	–	–	–
CCOP(=O)(OCC)C(c1cc(C(C)(C)C)c(O)c(C(C)(C)C)c1)c1ccc(NC(=O)Nc2ccccc2)nc1NC(=O)Nc1ccccc1 (stereo not shown) [5b]	31.4 ± 2.4	–	62.5 ± 5.2	17.9 ± 1.9	20 ± 1.7	36.3 ± 2.8	–	–	–
